Data: PMC7037731, “Synthesis, Anticancer Activity, and Preliminary Pharmacokinetic Evaluation of 4,4-Disubstituted Curcuminoid 2,2-bis(Hydroxymethyl)Propionate Derivatives” (Molecules, 2020)
Where two headings read alike, the source gives them in different places.

What was measured:
[1] = test system: MDA-MB-231; test: MTT anti-proliferative assay, MDA-MB-231; type: cell-based; settings: Homo sapiens
Method: (§1) These compounds, along with all newly synthesized compounds, were screened for anti-proliferative activity against the same TNBC and colon cancer cell lines.
(§2) Cell viability was evaluated by measuring the reduction in MTT to yield blue formazan. Cells were cultured in 96-well plates, allowed to attach overnight, and then treated with compounds. After treatment, MTT solution (1 mg/mL) was added to each well, and plates were incubated for another 2 h. Medium was removed, blue formazan was dissolved in DMSO, and the absorbance was read at 570 nm by Multiskan Go spectrophotometer (Thermo Scientific, Madison, WI, USA).

[2] = test system: HCT-116; test: MTT anti-proliferative assay, HCT-116; type: cell-based; settings: Homo sapiens
Method: as §1, §2

[3] = test system: HCT-116 colon tumor xenograft; test: In vivo antitumor activity, HCT-116 colon tumor xenograft bearing nude mice; parameters: species or system nu/nu mice; settings: 30 mg/kg i.p. QOD, positive control
Method: The therapeutic effect of 2 was evaluated on HCT-116 colon tumor xenograft bearing nude mice. The oral administration of 2 at doses of 50, 100, or 150 mg/kg bw per day were performed after tumors reached approximately 100 mm^3 and continued for 30 consecutive days. 5-Fluorouracil treatment (30 mg/kg bw, i.p., QOD) was used as a positive control. […] There was a clear dose- and time-dependent inhibitory effect on tumor size in the other two groups, in which at 50 and 150 mg/kg doses the volume of the HCT-116 colon tumor was reduced to 73% and 40% of the control, respectively (Figure 2). The body weight of the mice was recorded prior to dosing every 3 d, and the average body weight of each group is depicted in Figure 3. Otherwise, they were monitored for visible signs of toxicity and behavioral changes 1 h after each administration.
Male nu/nu mice (5 weeks old) from National Laboratory Animal Center (Taipei, Taiwan) were maintained under the procedures and guidelines provided by the Institutional Animal Care and Use Committee of the National Health Research Institutes (Taipei, Taiwan). All experiments were supervised under the Institutional Animal Care and Use Committee, China Medical University, Taichung, Taiwan with a protocol number ([…]-2018-278). HCT-116 colon cancer cells (5 × 10^6 cells per mouse) were suspended in 0.1 mL of Matrigel solution (50% v/v Matrigel in PBS) and inoculated into the mammary fat pads of the mice. When the tumor size reached 100 mm^3, the tumor-bearing mice were randomly divided into four groups for treating with vehicle (5% ethanol and 10% tween 80 in 85% saline, 0.1 mL) and 2 (p.o. 50, 100 and 150 mg/kg/day body weight) respectively. Compounds was administered via oral route daily for 30 days. 5-Fluorouracil-treated group (i.p. 30 mg/kg) is the positive control. Tumor size and mouse body weight were measured once every 3 days, and tumor volume (mm^3) was calculated using the equation: length × (width)^2 × 0.5. At the end of experiments, mice were sacrificed.

[4] = 48 h treatment, MTT, mean ± SD of at least three experiments, read-out: IC50 (M)/ 48 h MDA-MB-231
[5] = 48 h treatment, MTT, mean ± SD of at least three experiments, read-out: IC50 (M)/ 48 h HCT-116
[6] = anti-proliferative screening, read-out: IC50 MDA-MB-231
[7] = anti-proliferative screening, read-out: IC50 HCT-116

| IC50 [1, 4] [M] | IC50 [2, 5] [M] | melting point [°C] | IC50 [1, 6] [M] | IC50 [2, 7] [M] | SMILES | tumor-growth inhibition [3] [%] |
| --- | --- | --- | --- | --- | --- | --- |
| 8.49e-05 ± 1.67e-06 | 6.91e-05 ± 3.11e-06 | 187 to 188 |  |  | COCC(COC)(C(=O)/C=C/c1ccc(OC(=O)C(C)(CO)CO)c(OC)c1)C(=O)/C=C/c1ccc(OC(=O)C(C)(CO)CO)c(OC)c1 [Compound 11, [(1E,6E)-4,4-bis(Methoxymethyl)-3,5-dioxohepta-1,6-diene-1,7-diyl]bis(2-methoxy-4,1-phenylene) bis[3-hydroxy-2-(hydroxymethyl)-2-methylpropanoate]] |  |
| 3.1e-06 ± 1.5e-07 | 1.38e-06 ± 6e-08 |  |  |  | C#CCC(CC#C)(C(=O)/C=C/c1ccc(O)c(OC)c1)C(=O)/C=C/c1ccc(O)c(OC)c1 [Compound 5m, (1E,6E)-1,7-bis(4-Hydroxy-3-methoxyphenyl)-4,4-di(prop-2-yn-1-yl)hepta-1,6-diene-3,5-dione] |  |
| 1.82e-05 ± 5.3e-07 | 1.07e-05 ± 1.63e-06 | 137 to 139 |  |  | CCCC(CCC)(C(=O)/C=C/c1ccc(O)c(OC)c1)C(=O)/C=C/c1ccc(O)c(OC)c1 [Compound 15, (1E,6E)-1,7-bis(4-Hydroxy-3-methoxyphenyl)-4,4-dipropylhepta-1,6-diene-3,5-dione] |  |
|  |  |  | ≥ 0.0001 | ≥ 0.0001 | COc1cc(CCC(=O)C(C)(C)C(O)CCc2ccc(O)c(OC)c2)ccc1O (stereo not drawn) [Compound 20, 5-hydroxy-1,7-bis(4-hydroxy-3-methoxyphenyl)-4,4-dimethylheptan-3-one] |  |
| 9.12e-06 ± 4e-07 | 8.18e-06 ± 5.7e-07 | 114 to 115 |  |  | CCC(CC)(C(=O)/C=C/c1ccc(O)c(OC)c1)C(=O)/C=C/c1ccc(O)c(OC)c1 [Compound 3m, (1E,6E)-4,4-Diethyl-1,7-bis(4-hydroxy-3-methoxyphenyl)hepta-1,6-diene-3,5-dione] |  |
|  |  |  |  |  | O=c1[nH]cc(F)c(=O)[nH]1 [5-Fluorouracil, reference compound] | 40 |
| 3.65e-05 ± 1.66e-06 | 9.4e-06 ± 2e-08 | 134 to 135 |  |  | COc1cc(/C=C/C(=O)C(Cc2ccccc2)(Cc2ccccc2)C(=O)/C=C/c2ccc(O)c(OC)c2)ccc1O [Compound 4m, (1E,6E)-4,4-Dibenzyl-1,7-bis(4-hydroxy-3-methoxyphenyl)hepta-1,6-diene-3,5-dione] |  |
| 3.02e-06 ± 1.5e-07 | 1.93e-06 ± 1e-08 |  |  |  | CCC(CC)(C(=O)/C=C/c1ccc(OC(=O)C(C)(CO)CO)c(OC)c1)C(=O)/C=C/c1ccc(OC(=O)C(C)(CO)CO)c(OC)c1 [Compound 3] |  |
|  |  |  | ≥ 0.0001 | ≥ 0.0001 | COc1cc(CCC(O)C(C)(C)C(O)CCc2ccc(O)c(OC)c2)ccc1O (stereo not drawn) [Compound 21, 1,7-bis(4-Hydroxy-3-methoxyphenyl)-4,4-dimethylheptane-3,5-diol] |  |
| 6.88e-06 ± 3.6e-07 | 4.4e-06 ± 5.3e-07 |  |  |  | C=CCC(CC=C)(C(=O)/C=C/c1ccc(O)c(OC)c1)C(=O)/C=C/c1ccc(O)c(OC)c1 [Compound 6m, (1E,6E)-4,4-Diallyl-1,7-bis(4-hydroxy-3-methoxyphenyl)hepta-1,6-diene-3,5-dione] |  |
| 2.45e-06 ± 2.4e-07 | 7.66e-06 ± 6.1e-07 |  |  |  | COc1cc(/C=C/C(=O)C(Cc2ccccc2)(Cc2ccccc2)C(=O)/C=C/c2ccc(OC(=O)C(C)(CO)CO)c(OC)c2)ccc1OC(=O)C(C)(CO)CO [Compound 4] |  |
| > 0.0001 | 6.7e-05 ± 3.18e-06 | 144 to 146 |  |  | CCCCC(CCCC)(C(=O)/C=C/c1ccc(O)c(OC)c1)C(=O)/C=C/c1ccc(O)c(OC)c1 [Compound 16, (1E,6E)-4,4-Dibutyl-1,7-bis(4-hydroxy-3-methoxyphenyl)hepta-1,6-diene-3,5-dione] |  |
|  |  |  | 3.648e-05 ± 3.4e-07 | 9.64e-06 ± 2.1e-07 | COc1cc(/C=C/C(=O)C(C)(C)C(=O)CCc2ccc(O)c(OC)c2)ccc1O [Compound 18, (E)-1,7-bis(4-Hydroxy-3-methoxyphenyl)-4,4-dimethylhept-1-ene-3,5-dione] |  |
| 5.74e-05 ± 2.06e-06 | 4.01e-05 ± 1.61e-06 | > 300 |  |  | COc1ccc(/C=C/C(=O)C(COC(=O)C(C)(CO)CO)(COC(=O)C(C)(CO)CO)C(=O)/C=C/c2ccc(OC)c(OC)c2)cc1OC [Compound 14, 2,2-bis[(E)-3-(3,4-Dimethoxyphenyl)acryloyl]propane-1,3-diylbis[3-hydroxy-2-(hydroxymethyl)-2-methylpropanoate]] |  |
| 5.87e-06 ± 1e-07 | 5.81e-06 ± 2.3e-07 |  |  |  | C#CCC(CC#C)(C(=O)/C=C/c1ccc(OC(=O)C(C)(CO)CO)c(OC)c1)C(=O)/C=C/c1ccc(OC(=O)C(C)(CO)CO)c(OC)c1 [Compound 5] |  |
| 5.35e-05 ± 3.45e-06 | 5.8e-05 ± 6e-07 | 174 to 176 |  |  | COc1ccc(/C=C/C(=O)C(CO)(CO)C(=O)/C=C/c2ccc(OC)c(OC)c2)cc1OC [Compound 12, (1E,6E)-1,7-bis(3,4-Dimethoxyphenyl)-4,4-bis(hydroxymethyl)hepta-1,6-diene-3,5-dione] |  |
| 3.13e-06 ± 5.4e-07 | 9.2e-07 ± 6e-08 | 195 to 197 |  |  | C=CCC(CC=C)(C(=O)/C=C/c1ccc(OC(=O)C(C)(CO)CO)c(OC)c1)C(=O)/C=C/c1ccc(OC(=O)C(C)(CO)CO)c(OC)c1 [Compound 6, [(1E,6E)-4,4-Diallyl-3,5-dioxohepta-1,6-diene-1,7-diyl]bis(2-methoxy-4,1-phenylene) bis[3-hydroxy-2-(hydroxymethyl)-2-methylpropanoate]] |  |
|  |  |  | ≥ 0.0001 | ≥ 0.0001 | COc1cc(CCC(=O)C(C)(C)C(=O)CCc2ccc(O)c(OC)c2)ccc1O [Compound 19, 1,7-bis(4-Hydroxy-3-methoxyphenyl)-4,4-dimethylheptane-3,5-dione] |  |

| SMILES | IC50 [1, 4] [M] | IC50 [2, 5] [M] | melting point [°C] | IC50 [1, 6] [M] | IC50 [2, 7] [M] | tumor-growth inhibition [3] [%] |
| --- | --- | --- | --- | --- | --- | --- |
| COc1cc(/C=C/C(=O)CC(=O)/C=C/c2ccc(O)c(OC)c2)ccc1O [Curcumin, (1E,6E)-1,7-bis(4-hydroxy-3-methoxyphenyl)hepta-1,6-diene-3,5-dione] | 2.21e-05 ± 2.97e-06 | 2.63e-05 ± 1.38e-06 |  |  |  |  |
| COc1cc(/C=C/C(=O)C(COC(C)=O)(COC(C)=O)C(=O)/C=C/c2ccc(OC(=O)C(C)(CO)CO)c(OC)c2)ccc1OC(=O)C(C)(CO)CO [Compound 10, [(1E,6E)-4,4-bis(Acetoxymethyl)-3,5-dioxohepta-1,6-diene-1,7-diyl]bis(2-methoxy-4,1-phenylene) bis[3-hydroxy-2-(hydroxymethyl)-2-methylpropanoate]] | 6.55e-06 ± 4e-08 | 6.53e-06 ± 1e-08 | 194 to 196 |  |  |  |
